Test results published in patent publication US9023831B2, “Methods and compositions of inhibiting complement and cellular activation with Dextran Sulfate” (Novelmed Therapeutics, Inc., priority 2007, dated 2015).
“Also recorded” adds a separate entry of the source. Where two headings read alike, the source gives them in different places.

What was measured:
[1] = tested on: Alternative Pathway Dependent C3b formation in Normal Human Serum; test: Alternative pathway-dependent C3b assay on LPS coated plates; format: biochemical; details: for inhibition of C3b formation: increasing concentrations
Description: As a result, C3b is generated and is deposited on to LPS. […] LPS bound C3b was detected with a rabbit anti-human C3c antibody (Dako Corp). Rabbit antibody bolund to C3b was detected with peroxidase-conjugated goat anti-rabbit polyclonal antibody. Peroxidase was detected with TMB substrate using common methods.
It was of interest to us to determine whether the Dextran Sulfate might appreciably affect the C3b generation, an important component of the amplification loop of the complement cascade. To analyze the effects of the Dextran Sulfate on C3b formation via the alternative pathway, an assay was utilized in which bacterial LPS was used as a substrate to initiate the alternative complement pathway cascade. […] Microtiter wells were coated with LPS (2 μg/50 μl per well) in VBS overnight at 4° C. Uncoated wells served as background controls. After aspirating the LPS solution, wells were treated with blocking solution and incubated with various concentrations of normal human serum. Following a 2 hour incubation at 37° C., deposited C3b was detected with rabbit anti-human C3c polyclonal antibody (Accurate Biochemicals) using standard ELISA methodologies essentially as described in the Examples above. […] The amount of inhibition of soluble C3b deposition was determined using the antibody detection system described in the Examples above.

[2] = tested on: C5b-9 Formation in Normal Human Serum; test: Alternative pathway-dependent C5b-9 (MAC) solid phase ELISA on LPS; format: biochemical; details: 8% NHS, LPS coated wells
Method: Uncoated wells served as background controls.
Microtiter wells were coated with LPS (2 μg/50 μl per well) in VBS overnight at 4° C. Uncoated wells served as background controls. After aspirating the LPS solution, wells were treated with blocking solution and incubated with various concentrations of normal human serum.

[3] = tested on: Thrombin Generation in Citrated Human plasma; test: Thrombin generation in citrated human plasma (innovin, S2238); format: biochemical
Method: FIG. 7 illustrates NM33014 Inhibits Thrombin Generation in Citrated Human plasma: Citrated Human Plasma was mixed with various concentrations of Dextran Sulfate in the presence of constant concentration of S2238 (Diapharma). […] Data was recorded using Soft Max-Pro on Spectramax 190 kinetic spectramax. Data presented is from a representative experiment that was repeated three times.
Citrated human plasma (100 μl) was mixed with various concentrations of Dextran Sulfate in the presence of constant concentration of S2238 (100 μl of 2 μg/ml).

[4] = tested on: monocytes (CD11b expression); test: Monocyte activation (CD11b flow cytometry) after tubing loop; format: cell-based, human
Description: Same samples of blood following the tubing loop were also subjected to monocyte specific flow cytometry. […] Similar data was obtained with multiple donors. In the Figure are shown Rotated Control (blood sample in tubing loop), Unrotated controls (samples taken out before tubing loop). Unrotated represents the background controls.
The activation of neutrophils, monocyte and platelets were quantitated by measuring the levels of the cell-surface expression of CD11b and CD62P on neutrophils/monocytes and platelets, respectively. For CD11b labeling of neutrophils, 200 μl of whole blood collected from the circuits were immediately incubated with 20 μl of phycoerythrin (PE)-anti-CD11b antibody (Becton Dickinson, San Jose, Calif.) for 20 minutes at room temperature in a microcentrifuge tube. Then 2 ml of FACS Lysing Solution (Becton Dickinson) was added for 20 minutes at room temperature to lyse red blood cells and to fix leukocytes. The microcentrifuge tubes were centrifuged at 300 g for 5 minutes for leukocytes and 1200 g for platelets. The supernatant was aspirated and the cells resuspended in PBS for washing. The tubes were spun again, the supernatant aspirated, and the cells finally resuspended in 0.5 ml of 1% paraformaldehyde overnight prior to analysis using an BD-LSR flow cytometer (BD Biosciences). For double labeling to concomitantly identify the neutrophil population, 10 μl of fluorescein isothiocyanate (FITC)-anti-CD15 antibody (clone MMA, Becton Dickinson) were added for incubation together with PE-anti-CD11b antibody to stain neutrophils and anti-CD14 (FITC) along with PE-CD11b was used for monocytes.
Neutrophils bear both C3a and C5a receptors. Thus, prevention of C3a/C5a production should have direct effect on CD11b expression. Monocytes have been known to bear the C3a receptors. C3a produced because of complement activation is known to activate monocytes.

properdin = properdin (Homo sapiens, UniProt P27918); details: Dextran Sulfate added in solution along with properdin
properdin, sequence (P27918 28-469): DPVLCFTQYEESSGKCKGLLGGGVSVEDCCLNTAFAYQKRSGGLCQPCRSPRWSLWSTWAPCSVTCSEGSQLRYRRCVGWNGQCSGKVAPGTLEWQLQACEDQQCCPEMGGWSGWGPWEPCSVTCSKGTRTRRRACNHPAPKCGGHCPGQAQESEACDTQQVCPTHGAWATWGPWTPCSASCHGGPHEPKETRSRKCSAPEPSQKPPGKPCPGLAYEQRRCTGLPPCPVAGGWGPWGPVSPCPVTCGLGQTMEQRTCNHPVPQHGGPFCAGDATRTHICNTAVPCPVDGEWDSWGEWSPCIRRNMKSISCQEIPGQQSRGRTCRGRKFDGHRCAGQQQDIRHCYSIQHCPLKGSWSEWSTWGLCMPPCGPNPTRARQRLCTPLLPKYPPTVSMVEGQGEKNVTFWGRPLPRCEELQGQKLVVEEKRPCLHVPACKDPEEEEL
Method: Methods: Polystyrene microtiter plates were coated with Dextran Sulfate overnight. Wells without Dextran Sulfate coating served as background controls. After removal of the Dextran Sulfate solution, the plates were washed and blocked with 1% BSA in PBS. Properdin solution with and without Dextran Sulfate was added to the appropriate wells. After this incubation, properdin solution was aspirated from the plate and the plate was washed. The wells were then incubated with anti-properdin monoclonal antibody at a 1:2000 dilution in blocking solution to allow detection of Dextran Sulfate-bound properdin. The wells were rinsed and further incubated with peroxidase-conjugated goat anti-mouse IgG followed by another wash step. Dextran Sulfate-bound properdin was detected by the addition of TMB substrate. The reaction of TMB was quenched by the addition of O-phosphoric acid and the plate read at 450 nm.

Properdin Binding to C3b = Properdin Binding to C3b (Homo sapiens, UniProt P27918); test: Inhibition of properdin binding to C3b (ELISA); details: C3b coated plates
Properdin Binding to C3b, sequence (P27918 28-469): as above
Method: Methods: Polystyrene microtiter plates were coated with C3b in phosphate buffered saline (PBS) overnight. After aspirating the C3b solution, wells were blocked bovine serum albumin Wells without C3b coating served as background controls. […] Wells were washed PBS and C3b-bound properdin was detected by the addition of a mouse anti-human properdin antibody (Quidel, P#2 monoclonal). After washing the plate with PBS, HRP-conjugated goat anti-mouse antibody (Sigma Chemicals A2304) was added and allowed to incubate for 1 h. The plate was again rinsed thoroughly with PBS, and TMB substrate was added to each well. The data was plotted using Microcal Origin Program.
In a typical assay, polystyrene microtiter plates were coated with C3b (50 μg/50 μl/well, Advanced Research Technologies, San Diego, Calif.) in phosphate buffered saline (PBS) overnight at 4° C. After aspirating the C3b solution, wells were blocked with PBS containing 1% bovine serum albumin (BSA) (Sigma Chemical Company, St. Louis, Mo., Cat. No. A7888) for 2 hours at room temperature. Wells without C3b coating served as background controls. […] C3b-bound properdin was detected by the addition of mouse monoclonal anti-human properdin antibody (detection antibody) (Quidel, San Diego, Calif., anti-human properdin monoclonal antibody P#2, Cat. No. A235) at 1:2000 dilution in blocking solution, which was allowed to incubate for 1 hour at room temperature. […] After incubation for 10 minutes at 25° C., the reaction of TMB was quenched by the addition of 100 μl of phosphoric acid, and the plate was read at 450 nm in a microplate reader (e.g., SPECTRA MAX 190, Molecular Devices, Sunnyvale, Calif.). […]
The ability of a Dextran Sulfate to inhibit C3b-P binding was evaluated by adding varying concentrations of Dextran Sulfate to a constant concentration of properdin (2 nM). The amount of properdin bound to C3b was detected with the antibody detection system described above.

[5] = tested on: Complement Activity in Whole Blood Following Tubing Loop Model; test: rRBC hemolysis with plasma after tubing loop model; details: for inhibition of rRBC hemolysis: plasma 10% in AP buffer
Method: Lightscattering was measured as a function of time. […] X-axis is time of hemolysis in seconds and Y-axis is scattering at 700 nm Methods: Whole heparinized blood was diluted with plasmalyte to 50% in the presence or absence of NM3014. Samples were centrifuged, and plasma was subjected to hemolysis assay. Plasma final concentration as 10% in GVB (GVB containing 10 mM MgCl2, 5 mM EGTA). rRBC was added and hemolysis of all samples were recorded.
Plasma aliquots for the alternative pathway hemolytic assays: Plasma samples were subjected to alternative pathway dependent hemolytic assay using AP buffer (GVB containing 10 mM magnesium chloride, 5 mM EGTA). Plasma concentrations were adjusted to 10% final in AP buffer. rRBC were incubated at 37° and the extent of hemolysis was obtained using kinetic run (SoftMax Pro, Molecular Devices, CA).

[6] = tested on: sC5b-9 in Normal Heparinized Whole Human Blood; test: sC5b-9 ELISA after tubing loop model of cardiopulmonary bypass; details: for inhibition of sC5b-9 formation / complement activity in whole blood / inhibition of sC5b-9 formation: 2 hour tubing loop rotation
Method: An aliquot of the plasma following the 2 hour tubing loop rotation in bypass was evaluated for sC5b-9 using ELISA kit from Quidel Corporation.
Preparation of Tubing Loops: Tubing loops (PVC, cat # . . . VWR Scientific) were prepared by cutting a piece of polyvinyl tubing and connecting the ends of the tubing with a piece of silicone plug. Blood was drawn using 16 gauge needled from fasting healthy donors. The blood volume of 45 was drawn into a 50 ml polypropylene tube containing a final concentration of 5 units of heparin per ml of blood. The blood was diluted with 35 ml plasmalyte. The diluted blood (2 ml) was filled in each tubing loop. Duplicate tubing loops were prepared for each treatment. Blood samples were prepared as follows; no treatment, treated with various concentrations of Dextran Sulfate.
(2) Tubing Loop Operation and Sampling: The concentration of Dextran Sulfate was chosen based upon in vitro assay and the concentration of plasma. Concentrations of Dextran Sulfate in range of 800 μg/ml, 400 μg/ml, 200 μg/ml, 100 μg/ml, and 40 μg/ml. Prior to the addition of the untreated and treated blood to the extracorporeal circuit, a blood sample was taken from the stock of diluted blood and is designated baseline control. At that time, various concentrations of Dextran Sulfate in blood will be filled into the tubing loop. Following a 2 hours rotation at 37°, tubing loop samples were transferred to 2 ml polypropylene tubes and plasma samples were prepared by immediate centrifugation at 2,000 g. […] A number of controls were put into place. From the donor we obtained serum, heparinized whole blood plasma, unrotated controls, rotated controls, and Dextran Sulfate treated samples.
Plasma aliquots for measuring sC5b-9 in ELISA. Aliquots were appropriately diluted for the measurements of sC5b-9 complex in plasma.

[7] = tested on: Complement Activity in Antigen-Induced Arthritic Rabbit; test: Complement activity in antigen-induced arthritic rabbits (C3c assay); details: 60 mg/Kg i.v.; for inhibition of complement activation in vivo: ten minutes after treatment, vs vehicle-treated AIA rabbits
Method: METHODS: After the intra-articular ovalbumin injection to induce arthritis, disease pathology developed for seven days prior to the collection of a blood sample to determine complement activation levels and the administration of Dextran Sulfate treatment. Blood samples were drawn prior to all treatments with Dextran Sulfate to establish baseline values and pre-treatment complement activation levels. Dextran Sulfate (60 mg/Kg) was then injected via the marginal vein every day over a 3 day period. Ten minutes after treatment with Dextran Sulfate a second 1-ml blood sample from the ear to assess complement activation shortly after the treatment. Complement activation was assessed using the C3c assay described in methods.

inhibition of properdin binding to substrate-bound Dextran Sulfate (properdin): inhibited
inhibition of properdin binding to substrate-bound Dextran Sulfate (properdin; listed as Dextran Sulfate): dose-dependent inhibition
inhibition of properdin binding to C3b (Properdin Binding to C3b): dose-dependent and complete inhibition
inhibition of properdin binding to C3b (Properdin Binding to C3b; listed as Dextran Sulfate): dose-dependent inhibition
IC50 of inhibition of properdin binding to C3b (Properdin Binding to C3b; human serum containing nearly 2-5 nM properdin): ~50 µg/mL
Substance: Dextran Sulfate [NM3014]
IC50 of inhibition of C3b formation ([1]; 10% normal human serum): 7 to 10 µg/mL
inhibition of C3b formation [1]: inhibited C3b formation in a dose dependent manner
inhibition of C3b formation ([1]; listed as Dextran Sulfate): completely prevents C3b generation in a dose dependent manner
inhibition of C5b-9 (MAC) formation [2]: Inhibits C5b-9 Formation
inhibition of C5b-9 (MAC) formation ([2]; listed as Dextran Sulfate): completely prevented
effect on coagulation (thrombin generation) ([3]; 10 μg/ml): partial effect
effect on coagulation (thrombin generation) ([3]; 30 μg/ml): inhibit coagulation
effect on coagulation (thrombin generation) ([3]; 60 μg/ml): inhibit coagulation
inhibition of monocyte activation ([4]; 40 μg/ml): no effect
inhibition of monocyte activation ([4]; 100 μg/ml): inhibited; also recorded: prevents monocyte activation
inhibition of monocyte activation ([4]; 100 μg/ml, listed as Dextran Sulfate): down regulates CD11b expression
inhibition of rRBC hemolysis ([5]; 100 μg/ml): complete inhibition of hemolysis
inhibition of rRBC hemolysis ([5]; 200 μg/ml): complete inhibition of hemolysis
inhibition of rRBC hemolysis ([5]; 400 μg/ml): complete inhibition of hemolysis
inhibition of rRBC hemolysis ([5]; 800 μg/ml): complete inhibition of hemolysis
inhibition of complement activity in human plasma (hemolysis) ([5]; 100, 400, 800 μg/ml lines of FIG. 10a): inhibits complement activity
inhibition of rRBC hemolysis ([5]; around 40 μg/ml): No inhibition
inhibition of sC5b-9 formation / complement activity in whole blood ([6]; 40 μg/ml): no inhibition; also recorded: does not inhibit complement activity
inhibition of sC5b-9 formation / complement activity in whole blood ([6]; 100 μg/ml): complete inhibition; also recorded: inhibits complement activity; also recorded: inhibition of complement activity
inhibition of sC5b-9 formation ([6]; 400 μg/ml): complete inhibition
inhibition of sC5b-9 formation ([6]; 800 μg/ml): complete inhibition
inhibition of sC5b-9 production ([6]; all doses up to 100 μg/ml): completely inhibited
inhibition of AP activity in vivo ([7]; 24 hour later): no inhibition
inhibition of complement activation in vivo [7]: complete inhibition
inhibition of complement activation in vivo ([7]; listed as Dextran Sulfate): completely blocked
